Two compounds from article PMC5042876 (Journal of the American Chemical Society, 2016) can be followed below.

Numbering of substitutions follows the chain as printed. Where only a bound is given, the exact number is not on record here.

The target in series [1] is wild-type PntM (CYP161C2) (Streptomyces arenae, UniProt E3VWI3). Put plainly: Substrate binding assay.
For series [2], the target named is T1, PntM M81A (Streptomyces arenae, UniProt E3VWI3, M81A).
T1 sequence (E3VWI3 1-398 M81A): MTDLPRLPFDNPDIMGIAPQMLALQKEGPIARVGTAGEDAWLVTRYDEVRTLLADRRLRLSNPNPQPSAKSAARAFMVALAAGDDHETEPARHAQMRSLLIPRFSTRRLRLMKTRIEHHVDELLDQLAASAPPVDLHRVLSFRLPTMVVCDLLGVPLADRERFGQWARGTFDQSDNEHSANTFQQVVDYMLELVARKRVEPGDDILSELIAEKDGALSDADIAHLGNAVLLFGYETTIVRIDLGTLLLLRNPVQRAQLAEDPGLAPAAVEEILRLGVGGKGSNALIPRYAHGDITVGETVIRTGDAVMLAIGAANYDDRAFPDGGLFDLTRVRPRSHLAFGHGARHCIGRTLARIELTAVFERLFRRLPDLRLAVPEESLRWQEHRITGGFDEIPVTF
Put plainly: Substrate binding assay.

Series [3] concerns the target T2, PntM F232H (Streptomyces arenae, UniProt E3VWI3, F232H).
T2 sequence (E3VWI3 1-398 F232H): T1 sequence (E3VWI3 1-398 M81A) with A81M, F232H
Put plainly: Substrate binding assay, PntM F232H. The note with it: PntM F232H mutant.

Series [4] has as its target T3, PntM F232Y (Streptomyces arenae, UniProt E3VWI3, F232Y).
T3 sequence (E3VWI3 1-398 F232Y): T1 sequence (E3VWI3 1-398 M81A) with A81M, F232Y
Put plainly: Substrate binding assay, PntM F232Y. To be noted: PntM F232Y mutant.

Series [5] addresses T4, PntM F232A (Streptomyces arenae, UniProt E3VWI3, F232A).
T4 sequence (E3VWI3 1-398 F232A): T1 sequence (E3VWI3 1-398 M81A) with A81M, F232A
Put plainly: Steady-state kinetics and product profile, PntM F232A. The class given is biochemical. The note with it: F232A mutant.

In series [6] the target is T5, PntM M81C-BME (Streptomyces arenae, UniProt E3VWI3, M81C).
T5 sequence (E3VWI3 1-398 M81C): T1 sequence (E3VWI3 1-398 M81A) with A81C
Put plainly: Substrate binding assay.

For series [7], the target named is T6, PntM M77S (Streptomyces arenae, UniProt E3VWI3, M77S).
T6 sequence (E3VWI3 1-398 M77S): T1 sequence (E3VWI3 1-398 M81A) with M77S, A81M
Put plainly: Steady-state kinetics and product profile, PntM M77S. The class given is biochemical. The note with it: M77S mutant.

The target in series [8] is T7, PntM F232L (Streptomyces arenae, UniProt E3VWI3, F232L).
T7 sequence (E3VWI3 1-398 F232L): T1 sequence (E3VWI3 1-398 M81A) with A81M, F232L
Put plainly: Steady-state kinetics and product profile, PntM F232L. The class given is biochemical. The note with it: F232L mutant.

In series [9] the target is T5, PntM M81C-BME. Put plainly: Steady-state kinetics and product profile, PntM M81C-BME. To be noted: M81C-BME mutant. It counts as biochemical.
Series [10] deals with T4, PntM F232A. Put plainly: Substrate binding assay.
Series [11] deals with T8, PntM-F232G (Streptomyces arenae, UniProt E3VWI3, F232G).
T8 sequence (E3VWI3 1-398 F232G): T1 sequence (E3VWI3 1-398 M81A) with A81M, F232G
Put plainly: Substrate binding assay.

The target of series [12] is T7, PntM F232L. Put plainly: Substrate binding assay.
Series [13] concerns the target T9, PntM M81C (Streptomyces arenae, UniProt E3VWI3, M81C).
T9 sequence (E3VWI3 1-398 M81C): T1 sequence (E3VWI3 1-398 M81A) with A81C
Put plainly: Steady-state kinetics and product profile, PntM M81C. It counts as biochemical. To be noted: M81C mutant.

Series [14] has as its target T9, PntM M81C. Put plainly: Substrate binding assay.
Series [15] has as its target T1, PntM M81A. Put plainly: Steady-state kinetics and product profile, PntM M81A. The class given is biochemical. The note with it: M81A mutant.
Series [16] deals with T6, PntM M77S. Put plainly: Substrate binding assay.
Where [17] appears, read: comparator not stated, figures fit comparison with M81C.

Sequence of wild-type PntM (CYP161C2) (E3VWI3 whole entry): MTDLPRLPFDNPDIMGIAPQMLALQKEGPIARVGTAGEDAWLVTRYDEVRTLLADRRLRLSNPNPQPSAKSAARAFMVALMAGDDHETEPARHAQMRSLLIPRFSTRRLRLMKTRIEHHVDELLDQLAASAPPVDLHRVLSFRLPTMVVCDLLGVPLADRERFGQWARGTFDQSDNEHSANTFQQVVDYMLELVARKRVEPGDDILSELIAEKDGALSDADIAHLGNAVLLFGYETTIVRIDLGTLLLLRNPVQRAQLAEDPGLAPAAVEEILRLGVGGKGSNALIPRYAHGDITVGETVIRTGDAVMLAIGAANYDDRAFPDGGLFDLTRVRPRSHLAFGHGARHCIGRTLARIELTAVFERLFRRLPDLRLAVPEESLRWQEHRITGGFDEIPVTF

`CC1(C)C[C@H]2C=C(C(=O)O)[C@@H]3COC(=O)[C@]4(CO4)[C@]23C1` [compound 2, pentalenolactone F]: the equilibrium dissociation constant (Kd) – broadly, a measure of binding affinity in units of concentration – in [1] turned out to be 7.2 ± 0.8 µM; in [2], 340 ± 90 µM; in [6], 31 ± 1 µM; in [10], 270 ± 85 µM; in [11], 225 ± 45 µM; in series [12], 160 ± 12 µM. Moreover, the Kd in series [14] amounted to 43 ± 3 µM; in series [16], 115 ± 8 µM. Moreover, the binding of substrate entry in series [3] and in [4] was “did not bind” in each case. Further, the “lower kcat/Km than wild type PntM” value in [5] was over 60 fold. Further, the “product profile (GC-MS)” value in series [5] was “exclusively pentalenolactone”; in [7], “no change in product profile”; in series [9] it was “no change in product profile”; in series [13], “exclusive formation of the oxidative rearrangement product 1”; in series [15], “no change in product profile”. Besides, the “KD greater than that of wild-type PntM” value in [6] and in series [14] was 4-6 fold in each case. In addition, the less active in series [7] (setting [17]) and in series [15] (setting [17]) was 5-15 fold in each case. Besides, the “decrease in kcat compared to wild type PntM” value in [8] turned out to be 20 fold. In addition, in series [8], the “reduction in Km compared to wild type PntM” value is 3 fold. In addition, the “reduction in kcat/Km compared to wild type PntM” value in [8] worked out at 7 fold. Moreover, in series [8] (no detectable hydroxylation products), the “product profile (GC-MS of total product mixture)” value is reported as “only the natural oxidative rearrangement product, pentalenolactone (1)”. Also, the “reduction in kcat/Km compared to wild-type” value in series [13] is 10 fold.

In the case of `CC1(C)C[C@H]2C[C@@H](C(=O)O)[C@@H]3COC(=O)[C@]4(CO4)[C@]23C1` [compound 7, 6,7-dihydropentalenolactone F], in series [1], binding was characterised by a dissociation constant (Kd) of 170 ± 17 µM and the “binding weaker than natural substrate 2” value is about 25 times. Besides, the P450 binding spectrum result in series [1] (wild-type PntM, UV shift from 420 nm to 390 nm) was “normal Type I P450 binding spectrum”.
